Test results from patent publication US20100186098A1, “TRANSGENIC ANIMAL MODELS OF PARKINSON'S DISEASE” (CORNELL UNIVERSITY, priority 2007, published 2010).

Tests used:
Format in all cases: in vivo, mouse
Details in all cases: intraperitoneal; L-dopa 2 and 20 mg/kg with benserazide, tested 40 minutes after injection; apomorphine 10 mg/kg, tested 5 minutes after
hR1441G LRRK2 mice [1] = experiment: Home cage activity test, pharmacological rescue
Description: (§1) hR1441G LRRK2 mice and WT littermates were kept in a 12:12 hour light/dark cycle in a temperature and humidity controlled room. All behavioral tests were conducted in the dark phase after two hours of the light/dark switch. In home cage activity test, hR1441G LRRK2 mice and wild type littermates were video taped in home cage for spontaneous ambulatory activity without any disturbance. In cylinder test, hR1441G LRRK2 mice were individually transferred into a 12 cm diameter cylinder and video taped with a reflective mirror for 5 minutes. Vertical rearing and horizontal limb steps were counted. In open field test, mice were transferred into a 45 cm×45 cm box for 10 minutes, video taped and analyzed by Ethovision, 3.0 from Noldus. The locomotor activity was measured by total distance and the number of tiles that the mice traveled.
(§2) To address whether the loss of movement in hR1441G LRRK2 mice originated from a defect in the dopaminergic system, a pharmacological approach was applied. hR1441G LRRK2 mice and wild type littermates were injected with saline control or methyl L-dopa hydrochloride (Sigma, St. Louis, USA) in 0.9% NaCl with benserazide 6.5 mg/kg (Sigma). Two dosages of methyl L-dopa hydrochloride (2 mg/kg and 20 mg/kg) were tested. 0.3 ml of intraperitoneal injections was administered to each animal. Behavioral testing were performed 40 minutes after the injections. […]

hR1441G LRRK2 mice [2] = experiment: Open field test, pharmacological rescue
Description: as §1, §2

[3] = tested on: hR1441G LRRK2 BAC mice (TG); experiment: Cylinder test (rearing), pharmacological rescue
Description: FIGS. 9A-9B illustrate robust locomotor deficit in hR1441G LRRK2 BAC mice was rescued by L-Dopa and apomorphine. Wild type littermates (WT) and hR1441G LRRK2 BAC mice (TG) were tested for 3 min in the cylinder test. Rearing was counted as an indication of motor activity. (9A) An age dependent decline in rearing was detected. At 3, 6 and 10 months of age, WT mice reared an average 50.4±SE2.13, 51.4±SE1.28, 50.2.4±SE2.13 times, while TG mice reared 49.4±SE2.13, […] and zero times respectively. At 6 and 10 months of age, TG mice had significant reductions (P<0.005, P<0.001 respectively). (9B) This robust deficit in TG mice was rescued by 20 mg/kg L-Dopa with […] Benseramide. In saline injection controls, WT and TG mice reared 50.4±SE2.48 and 0.8±SE0.37 in 3 minutes, whereas in L-dopa injection, WT and TG mice reared 47.2±SE1.65 and 28.4±SE1.43.
hR1441G LRRK2 mice and WT littermates were kept in a 12:12 hour light/dark cycle in a temperature and humidity controlled room. All behavioral tests were conducted in the dark phase after two hours of the light/dark switch. […] Vertical rearing and horizontal limb steps were counted. In open field test, mice were transferred into a 45 cm×45 cm box for 10 minutes, video taped and analyzed by Ethovision, 3.0 from Noldus. The locomotor activity was measured by total distance and the number of tiles that the mice traveled. […]

CN1CCc2cccc3c2[C@H]1Cc1ccc(O)c(O)c1-3 [apomorphine]
significantly rescued: Rescue from motor deficits in home cage activities (hR1441G LRRK2 mice [1]) | Rescue from motor deficits in the open field test (hR1441G LRRK2 mice [2]) | Rescue from motor deficits in the cylinder test [3]
